Data as given in PubChem BioAssay AID1918939 (Molecular Pharmacology Branch, DTP, NCI, 2023).
“And” between values parts separate entries of the source, which are not always exact repeats. Identical values can stand only once.

Test system: 653999-131-R-J2-PDC complex spheroid viability
Assay: Anticancer human tumor 653999-131-R-J2-PDC patient-derived lung adenocarcinoma cell line growth inhibition
Conditions: for viability, T/C: stronger effect = lower value
In short: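 Complex spheroids of tumor cells with HUVEC and human MSCs, exposed to iadademstat combined with other agents. Each agent tested in half-log steps from near clinical Cmax (else 10 microM top), DMSO ≤0.25%.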

[1] = curve of first compound, second compound 0.1 µM
[2] = curve of first compound, second compound 0.316 µM
[3] = curve of first compound, second compound 1 µM
[4] = curve of first compound, second compound 3.16 µM
[5] = curve of first compound, second compound 10 µM
[6] = second compound 0.1 µM, first compound 0.00949 µM
[7] = second compound 0.1 µM, first compound 0.03 µM
[8] = second compound 0.1 µM, first compound 0.0949 µM
[9] = second compound 0.1 µM, first compound 0.3 µM
[10] = second compound 0.1 µM, first compound 0.949 µM
[11] = second compound 0.1 µM, first compound 3 µM
[12] = second compound 0.316 µM, first compound 0.00949 µM
[13] = second compound 0.316 µM, first compound 0.03 µM
[14] = second compound 0.316 µM, first compound 0.0949 µM
[15] = second compound 0.316 µM, first compound 0.3 µM
[16] = second compound 0.316 µM, first compound 0.949 µM
[17] = second compound 0.316 µM, first compound 3 µM
[18] = second compound 1 µM, first compound 0.00949 µM
[19] = second compound 1 µM, first compound 0.03 µM
[20] = second compound 1 µM, first compound 0.0949 µM
[21] = second compound 1 µM, first compound 0.3 µM
[22] = second compound 1 µM, first compound 0.949 µM
[23] = second compound 1 µM, first compound 3 µM
[24] = second compound 3.16 µM, first compound 0.00949 µM
[25] = second compound 3.16 µM, first compound 0.03 µM
[26] = second compound 3.16 µM, first compound 0.0949 µM
[27] = second compound 3.16 µM, first compound 0.3 µM
[28] = second compound 3.16 µM, first compound 0.949 µM
[29] = second compound 3.16 µM, first compound 3 µM
[30] = second compound 10 µM, first compound 0.00949 µM
[31] = second compound 10 µM, first compound 0.03 µM
[32] = second compound 10 µM, first compound 0.0949 µM
[33] = second compound 10 µM, first compound 0.3 µM
[34] = second compound 10 µM, first compound 0.949 µM
[35] = second compound 10 µM, first compound 3 µM
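Also: spheroids exposed to agents for seven days before readout.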

SMILES: NS(=O)(=O)OCC1CC(n2ccc3c(NC4CCc5ccccc54)ncnc32)CC1O (configuration not stated) + NC1CCC(NC2CC2c2ccccc2)CC1
- IC50 [1]: > 3000 nM
- IC50 [2]: > 3000 nM
- IC50 [3]: > 3000 nM
- IC50 [4]: > 3000 nM
- IC50 [5]: > 3000 nM
- viability, T/C [6]: 97.5%
- viability, T/C [7]: 80.8%
- viability, T/C [8]: 106%
- viability, T/C [9]: 107%
- viability, T/C [10]: 54.7%
- viability, T/C [11]: 61.1%
- viability, T/C [12]: 97.8%
- viability, T/C [13]: 81.6%
- viability, T/C [14]: 105%
- viability, T/C [15]: 114%
- viability, T/C [16]: 55.6%
- viability, T/C [17]: 50.7%
- viability, T/C [18]: 94.4%
- viability, T/C [19]: 92.8%
- viability, T/C [20]: 91.2%
- viability, T/C [21]: 116%
- viability, T/C [22]: 60.5%
- viability, T/C [23]: 56.2%
- viability, T/C [24]: 105%
- viability, T/C [25]: 98.7%
- viability, T/C [26]: 100%
- viability, T/C [27]: 105%
- viability, T/C [28]: 58.6%
- viability, T/C [29]: 59.2%
- viability, T/C [30]: 116%
- viability, T/C [31]: 101%
- viability, T/C [32]: 105%
- viability, T/C [33]: 118%
- viability, T/C [34]: 63.7%
- viability, T/C [35]: 54.2%

SMILES: COc1cc(Nc2ncc3c(n2)-c2ccc(Cl)cc2C(c2c(F)cccc2OC)=NC3)ccc1C(=O)O
- viability, T/C (compound 0.00316 µM): 96.9% and 78.1%
- viability, T/C (compound 0.01 µM): 90.6% and 74%
- viability, T/C (compound 0.0316 µM): 68.8% and 68.2%
- viability, T/C (compound 0.1 µM): 70% and 73.6%
- viability, T/C (compound 0.316 µM): 73.4% and 78%
- viability, T/C (compound 1 µM): 68.2% and 64.2%
- IC50 (curve of compound): > 1000 nM

SMILES: Nc1ncn(C2CC(O)C(CO)O2)c(=O)n1 (configuration not stated) + NC1CCC(NC2CC2c2ccccc2)CC1
- IC50 [1]: > 1000 nM
- IC50 [2]: > 1000 nM
- IC50 [3]: > 1000 nM
- IC50 [4]: > 1000 nM
- IC50 [5]: > 1000 nM
- viability, T/C (second compound 0.1 µM, first compound 0.00316 µM): 102%
- viability, T/C (second compound 0.1 µM, first compound 0.01 µM): 89.1%
- viability, T/C (second compound 0.1 µM, first compound 0.0316 µM): 91.4%
- viability, T/C (second compound 0.1 µM, first compound 0.1 µM): 69%
- viability, T/C (second compound 0.1 µM, first compound 0.316 µM): 68.9%
- viability, T/C (second compound 0.1 µM, first compound 1 µM): 70.7%
- viability, T/C (second compound 0.316 µM, first compound 0.00316 µM): 93.3%
- viability, T/C (second compound 0.316 µM, first compound 0.01 µM): 105%
- viability, T/C (second compound 0.316 µM, first compound 0.0316 µM): 87.5%
- viability, T/C (second compound 0.316 µM, first compound 0.1 µM): 82.7%
- viability, T/C (second compound 0.316 µM, first compound 0.316 µM): 75.8%
- viability, T/C (second compound 0.316 µM, first compound 1 µM): 64.4%
- viability, T/C (second compound 1 µM, first compound 0.00316 µM): 92.1%
- viability, T/C (second compound 1 µM, first compound 0.01 µM): 86.5%
- viability, T/C (second compound 1 µM, first compound 0.0316 µM): 86.9%
- viability, T/C (second compound 1 µM, first compound 0.1 µM): 75.1%
- viability, T/C (second compound 1 µM, first compound 0.316 µM): 81.8%
- viability, T/C (second compound 1 µM, first compound 1 µM): 62%
- viability, T/C (second compound 3.16 µM, first compound 0.00316 µM): 87.1%
- viability, T/C (second compound 3.16 µM, first compound 0.01 µM): 87.6%
- viability, T/C (second compound 3.16 µM, first compound 0.0316 µM): 94.2%
- viability, T/C (second compound 3.16 µM, first compound 0.1 µM): 81.4%
- viability, T/C (second compound 3.16 µM, first compound 0.316 µM): 77.4%
- viability, T/C (second compound 3.16 µM, first compound 1 µM): 78%
- viability, T/C (second compound 10 µM, first compound 0.00316 µM): 93.5%
- viability, T/C (second compound 10 µM, first compound 0.01 µM): 99.3%
- viability, T/C (second compound 10 µM, first compound 0.0316 µM): 85.8%
- viability, T/C (second compound 10 µM, first compound 0.1 µM): 86.6%
- viability, T/C (second compound 10 µM, first compound 0.316 µM): 73.3%
- viability, T/C (second compound 10 µM, first compound 1 µM): 82.5%

SMILES: CCN(c1cc(-c2ccc(CN3CCOCC3)cc2)cc(C(=O)NCc2c(C)cc(C)[nH]c2=O)c1C)C1CCOCC1 + NC1CCC(NC2CC2c2ccccc2)CC1
- IC50 [1]: > 3000 nM
- IC50 [2]: > 3000 nM
- IC50 [3]: > 3000 nM
- IC50 [4]: > 3000 nM
- IC50 [5]: > 3000 nM
- viability, T/C [6]: 97.1%
- viability, T/C [7]: 93%
- viability, T/C [8]: 98.2%
- viability, T/C [9]: 94.9%
- viability, T/C [10]: 80.8%
- viability, T/C [11]: 74.9%
- viability, T/C [12]: 80.6%
- viability, T/C [13]: 88.9%
- viability, T/C [14]: 91.8%
- viability, T/C [15]: 80.9%
- viability, T/C [16]: 87.6%
- viability, T/C [17]: 72.2%
- viability, T/C [18]: 77.6%
- viability, T/C [19]: 101%
- viability, T/C [20]: 92.2%
- viability, T/C [21]: 76.3%
- viability, T/C [22]: 70.2%
- viability, T/C [23]: 78.8%
- viability, T/C [24]: 96.1%
- viability, T/C [25]: 94.5%
- viability, T/C [26]: 108%
- viability, T/C [27]: 84%
- viability, T/C [28]: 76.6%
- viability, T/C [29]: 83.9%
- viability, T/C [30]: 87.7%
- viability, T/C [31]: 84.9%
- viability, T/C [32]: 85.5%
- viability, T/C [33]: 76%
- viability, T/C [34]: 70%
- viability, T/C [35]: 82.4%

SMILES: O=C(C=Cc1cccc(S(=O)(=O)Nc2ccccc2)c1)NO + NC1CC1c1ccc(-c2cccc(O)c2)cc1
- IC50 [1]: > 3000 nM
- IC50 [2]: 296 nM
- IC50 [3]: 293 nM
- IC50 [4]: 294 nM
- IC50 [5]: 265 nM
- viability, T/C [6]: 99.8%
- viability, T/C [7]: 109%
- viability, T/C [8]: 88.8%
- viability, T/C [9]: 48.7%
- viability, T/C [10]: 8.83%
- viability, T/C [11]: 99.3%
- viability, T/C [12]: 92.8%
- viability, T/C [13]: 99%
- viability, T/C [14]: 87.9%
- viability, T/C [15]: 45.2%
- viability, T/C [16]: 9.89%
- viability, T/C [17]: 93.6%
- viability, T/C [18]: 78.8%
- viability, T/C [19]: 94.4%
- viability, T/C [20]: 92.4%
- viability, T/C [21]: 49.1%
- viability, T/C [22]: 8.18%
- viability, T/C [23]: 89%
- viability, T/C [24]: 88.2%
- viability, T/C [25]: 101%
- viability, T/C [26]: 89.8%
- viability, T/C [27]: 45.8%
- viability, T/C [28]: 7.35%
- viability, T/C [29]: 94.9%
- viability, T/C [30]: 83.5%
- viability, T/C [31]: 88.6%
- viability, T/C [32]: 83.3%
- viability, T/C [33]: 46%
- viability, T/C [34]: 9.36%
- viability, T/C [35]: 82.4%
